Measured values as given in article PMC7830897 (Viruses, 2021).
Values joined by “and” are separate entries in the source; they are usually repeats but may differ in a detail not shown here. Equal entries are not always repeated. “Also recorded” adds a separate entry of the source. Where two headings read alike, the source gives them in different places.

Experiments:
[1] = system: human cardiomyocytes; assay: Human cardiomyocyte function (video-based contractility analysis); type: cell-based; details: 50 µM
[2] = system: HBV; assay: Antiviral efficacy in nude mice bearing HBV transfected AD38 xenografts; type: in vivo; details: for difference in T/V ratios (HBV titers) versus no-drug / placebo control group: day 45
[3] = Centrifree ultrafiltration device
[4] = Single-dose plasma pharmacokinetics in male cynomolgus monkeys; details: for AUCtotal: mean n = 3, extrapolated; for t1/2: mean n = 3, terminal
[5] = parameters: method as in earlier work; details: CD-1 mice, cited from earlier work
[6] = system: HBV; parameters: method as in earlier work; details: 2% FBS, cited from earlier work
[7] = cynomolgus monkey plasma (1 donor), 10 µM
[8] = 2% FBS (used to measure potency in vitro), 10 µM
[9] = humanized mice, 60 mg/kg per day PO for 10 weeks; cited from earlier work
[10] = human, 10 µM
[11] = cited from earlier work
[12] = 1 mg/kg IV infusion, mean n = 3
[13] = eight of the ten mice, GLP-26 55 mg/kg 3 times per week via feeding tube, to day 45

Q: For `COc1nc(N)nc2c1ncn2[C@@H]1O[C@H](COP(=O)(N[C@@H](C)C(=O)OCC(C)(C)C)Oc2cccc3ccccc23)[C@@H](O)[C@@]1(C)O` (stereo partly drawn) [BMS-986094], which “resumption of cardiomyocyte beating” value [1] is on record?
A: The value was “resumed after 8 h with an unstable rhythm”.

Q: And the “time until cardiomyocyte beating stopped” value [1]?
A: Its value is at most 2 h.

Q: With `C=C1[C@H](CO)[C@@H](O)C[C@@H]1n1cnc2c(=O)[nH]c(N)nc21` [ETV, entecavir, reference compound] as the molecule, how does the “difference in T/V ratios (HBV titers) versus no-drug / placebo control group” value [2] read?
A: The value was 3 log10.

Q: Which non-specific adsorption [3] does the source give for `C#CCNC(=O)C(=O)c1c(C)c(C(=O)Nc2ccc(F)c(F)c2)n(C)c1C` [GLP-26] here?
A: Its non-specific adsorption is “approximately 2.6%”.

Q: And the AUMC [4, 12]?
A: Its AUMC is 1058 ng·mL^−1·h^2.

Q: What about the CL [4, 12] of the same molecule?
A: Its CL is 1.106 L·h/kg.

Q: And the Cmax [4, 12]?
A: The Cmax was 2513 ng/mL.

Q: What about the MRT [4, 12] of the same molecule?
A: The MRT was 1.2 h.

Q: What about the Tmax [4, 12] of the same molecule?
A: Its Tmax is 0.40 h.

Q: And the Vss [4, 12]?
A: The Vss was 1.065 Lkg^−1.

Q: And the AUCtotal ([4]; 1 mg/kg IV infusion)?
A: Its AUCtotal is 986.6 ± 316.5 ng·h/mL and 986.6 ng·h/mL.

Q: What about the t1/2 ([4]; 1 mg/kg IV infusion) of the same molecule?
A: Its t1/2 is 0.77 h.

Q: And the “Cmax relative to in vitro EC50 versus HBV” value ([4]; 5 mg/kg PO)?
A: The value was ~ 30 times.

Q: What about the AUMC ([4]; 5 mg/kg PO, mean n = 3) of the same molecule?
A: Its AUMC is 7435 ng·mL^−1·h^2.

Q: And the Cmax ([4]; 5 mg/kg PO, mean n = 3)?
A: Its Cmax is 380.7 ng/mL.

Q: What about the MRT ([4]; 5 mg/kg PO, mean n = 3) of the same molecule?
A: Its MRT is 4.19 h.

Q: What about the Tmax ([4]; 5 mg/kg PO, mean n = 3) of the same molecule?
A: The Tmax was 0.67 h.

Q: What about the AUCtotal ([4]; 5 mg/kg PO) of the same molecule?
A: Its AUCtotal is 1660 ng·h/mL and 1660 ± 530 ng·h/mL.

Q: And the t1/2 ([4]; 5 mg/kg PO)?
A: Its t1/2 is 2.4 h and 2.44 h.

Q: And the “signs of toxicity in monkeys” value ([4]; single IV (1 mg/kg) or PO (5 mg/kg) doses)?
A: The value was “appeared healthy prior to dosing and throughout the duration of the study; also recorded: No signs of toxicity were observed”.

Q: What about the “terminal t1/2” value ([5]; IV 15 mg/kg) of the same molecule?
A: Its value is 1.6 h.

Q: And the PO bioavailability ([5]; PO 30 mg/kg, IV 15 mg/kg)?
A: Its PO bioavailability is 61%.

Q: And the “terminal t1/2” value ([5]; PO 30 mg/kg)?
A: The value was over 6 h.

Q: And the “in vitro EC50 versus HBV” value ([6]; converted from nM)?
A: The value was ~ 1.1 ng/mL.

Q: And the “in vitro EC90 versus HBV” value ([6]; converted from nM)?
A: The value was ~ 11 ng/mL.

Q: And the EC50 ([6]; read-out: in vitro EC50 versus HBV)?
A: Its EC50 is 0.003 µM.

Q: What about the EC90 ([6]; read-out: in vitro EC90 versus HBV) of the same molecule?
A: Its EC90 is 0.03 µM.

Q: And the “percent bound in plasma” value [7]?
A: The value was 86.7%.

Q: And the “difference in T/V ratios (HBV titers) versus no-drug / placebo control group” value [2]?
A: Its value is 2.5 log10.

Q: And the “mean rebound in T/V” value [2, 13]?
A: Its value is 13.8 fold.

Q: And the “mean rebound in T/V (log10)” value [2, 13]?
A: The value was 1.14 log10.

Q: And the “percent bound in 2% FBS” value [8]?
A: The value was 17.9%.

Q: And the tolerability [9]?
A: The tolerability was “safely administered”.

Q: For `Nc1nc(=O)n([C@@H]2CS[C@H](CO)O2)cc1F` [emtricitabine], which “percent bound in plasma” value [10] is on record?
A: The value was 0.8%.

Q: What about the “percent bound (reported)” value [11] of the same molecule?
A: The value was under 4%.

Q: For `Cc1cccc(C)c1OCC(=O)N[C@@H](Cc1ccccc1)[C@@H](O)C[C@H](Cc1ccccc1)NC(=O)[C@H](C(C)C)N1CCCNC1=O` [lopinavir], which “percent bound in plasma” value [10] is on record?
A: The value was 97.9%.
